Source: ChEMBL document CHEMBL5226286, “The application of isatin-based multicomponent-reactions in the quest for new bioactive and druglike molecules” (Eur J Med Chem, 2021)
≈ marks a conversion by molar mass, not a printed value. Calls of active or inactive are those of the source. The calls are words filed in the database; no cut-off is given here.

Assays:
Aspergillus niger = experiment: Antifungal activity against Aspergillus niger; type: functional
Aspergillus flavus = experiment: Antifungal activity against Aspergillus flavus; type: functional
MDA-MB-435 = experiment: Antiproliferative activity against human MDA-MB-435 cells; type: functional, cell-based
A549 [1] = experiment: Anticancer activity against human A549 cells by MTT assay; type: functional, cell-based
HepG2 = experiment: cells; type: functional, cell-based; settings: Homo sapiens
Description: Antiproliferative activity against human HepG2 cells

[2] = test system: Mycobacterium tuberculosis; experiment: Antimycobacterial activity against active stage of Mycobacterium tuberculosis H37Ra ATCC 25177 assessed as minimum inhibitory concentration by XTT assay; type: functional
[3] = test system: Mycobacterium tuberculosis; experiment: Antimycobacterial activity against dormant stage of Mycobacterium tuberculosis H37Ra ATCC 25177 assessed as minimum inhibitory concentration by XTT assay; type: functional
MDA-MB-231 = experiment: cells; type: functional, cell-based; settings: Homo sapiens
Description: Antiproliferative activity against human MDA-MB-231 cells

HeLa = experiment: Antiproliferative activity against human HeLa cells; type: functional, cell-based
MCF7 = experiment: Cytotoxicity against human MCF7 cells; type: functional, cell-based
[4] = Antioxidant activity assessed as DPPH radical scavenging activity at 1 mg/ml relative to control; type: functional
Streptococcus pneumoniae = experiment: Antibacterial activity against Streptococcus pneumoniae incubated for 24 to 48 hrs by agar diffusion well method; type: functional; settings: time 24-48 hrs
Bacillus subtilis [5] = experiment: Antibacterial activity against Bacillus subtilis incubated for 24 to 48 hrs by agar diffusion well method; type: functional; settings: time 24-48 hrs
Pseudomonas aeruginosa [6] = experiment: Antibacterial activity against Pseudomonas aeruginosa incubated for 24 to 48 hrs by agar diffusion well method; type: functional; settings: time 24-48 hrs
Escherichia coli [7] = experiment: Antibacterial activity against Escherichia coli incubated for 24 to 48 hrs by agar diffusion well method; type: functional; settings: time 24-48 hrs
Aspergillus fumigatus = experiment: Antifungal activity against Aspergillus fumigatus RCMB 02568; type: functional
[8] = test system: Syncephalastrum racemosum; experiment: Antifungal activity against Syncephalastrum racemosum RCMB 05922; type: functional
Geotrichum candidum = experiment: Antifungal activity against Geotrichum candidum RCMB 05097; type: functional
Candida albicans = experiment: Antifungal activity against Candida albicans RCMB 05036; type: functional
Bacillus subtilis [9] = experiment: Antibacterial activity against Bacillus subtilis ATCC 465; type: functional
Bacillus pumilus = experiment: Antibacterial activity against Bacillus pumilus PTCC 1114; type: functional
Micrococcus luteus = experiment: Antibacterial activity against Micrococcus luteus PTCC 1110; type: functional
Streptococcus mutans = experiment: Antibacterial activity against Streptococcus mutans PTCC 1601; type: functional
[10] = test system: Staphylococcus epidermidis; experiment: Antibacterial activity against Staphylococcus epidermidis ATCC 12228; type: functional
Staphylococcus aureus [11] = experiment: Antibacterial activity against Staphylococcus aureus ATCC 25923; type: functional
Escherichia coli [12] = experiment: Antimicrobial activity against Escherichia coli ATCC 25922; type: functional
Enterococcus faecalis = experiment: Antibacterial activity against Enterococcus faecalis ATCC 29737; type: functional
Escherichia coli [13] = experiment: Antibacterial activity against Escherichia coli NCIM 2688 measured after 8 hrs; type: functional
Pseudomonas aeruginosa [14] = experiment: Antibacterial activity against Pseudomonas aeruginosa NCIM […] measured after 8 hrs; type: functional
Bacillus subtilis [15] = experiment: Antibacterial activity against Bacillus subtilis NCIM 2079 measured after 12 hrs; type: functional
Staphylococcus aureus [16] = experiment: Antibacterial activity against Staphylococcus aureus NCIM 2010 measured after 12 hrs; type: functional
A549 [17] = experiment: Antiproliferative activity against human A549 cells; type: functional, cell-based
Staphylococcus aureus [18] = experiment: Antibacterial activity against Staphylococcus aureus by disc diffusion method; type: functional
Bacillus subtilis [19] = experiment: Antibacterial activity against Bacillus subtilis by disc diffusion method; type: functional
Escherichia coli [20] = experiment: Antibacterial activity against Escherichia coli by disc diffusion method; type: functional
Pseudomonas aeruginosa [21] = experiment: Antibacterial activity against Pseudomonas aeruginosa by disc diffusion method; type: functional

## CC(C)CC1NC2(C(=O)Nc3ccccc32)C(C(=O)c2ccc(F)cc2)C1c1ccccc1 (stereo unspecified)
Aspergillus niger
  MIC: 20 µg/mL (≈ 45.2 µM)
Aspergillus flavus
  MIC: 20 µg/mL (≈ 45.2 µM)

## N#CC1=C(N)OC2=C(C(=O)c3ccccc32)C12C(=O)Nc1ccc(Br)cc12 (stereo unspecified)
MDA-MB-435
  IC50: 1800 nM

## CC(C)CC1NC2(C(=O)Nc3ccccc32)C(C(=O)c2ccc(F)cc2)C1c1ccc(Cl)cc1 (stereo unspecified)
Aspergillus niger
  MIC: 20 µg/mL (≈ 41.9 µM)
Aspergillus flavus
  MIC: 20 µg/mL (≈ 41.9 µM)

## C#CCN1C(=O)[C@]2(c3ccccc31)N(C)C[C@@](C#N)(C(=O)c1c[nH]c3ccccc13)[C@@]21C(=O)Nc2ccccc21
A549 [1]
  IC50: 50 µM

## O=C1C(=O)c2ccccc2C2=C1C1(C(=O)Nc3ccc(F)cc31)N1NN=NC1=N2 (stereo unspecified)
HepG2
  IC50: 2900 nM

## Cc1ccc(Cn2cc(CN3C(=O)C4(C(C#N)=C(N)OC5=C4C(=O)CC(C)(C)C5)c4cc(Br)ccc43)nn2)cc1 (stereo unspecified)
[2]
  MIC: 29.2 µg/mL (≈ 48.8 µM)
[3]
  MIC: 8.89 µg/mL (≈ 14.8 µM)

## CCC(C)Cn1cc(CN2C(=O)C3(C(C#N)=C(N)Oc4c3ccc3[nH]c5ccccc5c43)c3ccccc32)nn1 (stereo unspecified)
MDA-MB-231
  IC50: 3.8 µM
HeLa
  IC50: 14.9 µM

## CCOC(=O)C1=C(C(=O)OCC)C2(NC1(C(=O)OCC)C(=O)OCC)C(=O)N(C)c1ccc(C)cc12 (stereo unspecified)
MCF7
  IC50: 20.8 µM

## N[C@@H](CCC(=O)N[C@@H](CS)C(=O)NCC(=O)O)C(=O)O
[4]
  Activity: 92%

## CCOC(=O)N1C/C(=C\c2ccc(OC)cc2)C(=O)[C@@]2(C1)[C@H](c1ccc(OC)cc1)[C@H]1CCCN1[C@]21C(=O)Nc2ccccc21
Streptococcus pneumoniae
  MIC: 0.98 µg/mL (≈ 1.61 µM)
Bacillus subtilis [5]
  MIC: 0.015 µg/mL (≈ 0.0247 µM)
Pseudomonas aeruginosa [6]
  MIC: inactive
Escherichia coli [7]
  MIC: 15.6 µg/mL (≈ 25.7 µM)
Aspergillus fumigatus
  MIC: 1.95 µg/mL (≈ 3.21 µM)
[8]
  MIC: 0.98 µg/mL (≈ 1.61 µM)
Geotrichum candidum
  MIC: 0.49 µg/mL (≈ 0.806 µM)
Candida albicans
  MIC: inactive

## O=C1c2c(Cl)cccc2NC2(C(=O)Nc3ccccc32)N1Nc1ccccc1 (stereo unspecified)
Bacillus subtilis [9]
  MIC: 8 µg/mL (≈ 20.5 µM)
Bacillus pumilus
  MIC: 4 µg/mL (≈ 10.2 µM)
Micrococcus luteus
  MIC: 8 µg/mL (≈ 20.5 µM)
Streptococcus mutans
  MIC: 8 µg/mL (≈ 20.5 µM)
[10]
  MIC: 4 µg/mL (≈ 10.2 µM)
Staphylococcus aureus [11]
  MIC: 2 µg/mL (≈ 5.12 µM)
Escherichia coli [12]
  MIC: 32 µg/mL (≈ 81.9 µM)
Enterococcus faecalis
  MIC: 128 µg/mL (≈ 328 µM)

## CC1(C)CC(=O)C2=C(C1)OC(N)=C(C#N)C21C(=O)N(Cc2cn(Cc3ccc(Cl)cc3)nn2)c2ccc(Cl)cc21 (stereo unspecified)
[2]
  MIC: > 50 µg/mL
[3]
  MIC: 8.07 µg/mL (≈ 14 µM)
Escherichia coli [13]
  MIC90: 1.78 µg/mL (≈ 3.09 µM)
Pseudomonas aeruginosa [14]
  MIC90: 5.29 µg/mL (≈ 9.19 µM)
Bacillus subtilis [15]
  MIC90: 1.14 µg/mL (≈ 1.98 µM)
Staphylococcus aureus [16]
  MIC90: 3.55 µg/mL (≈ 6.17 µM)

## COc1ccc2[nH]cc(C(=O)C3(C#N)C(c4ncc[nH]4)CN(C)C34C(=O)Nc3ccccc34)c2c1 (stereo unspecified)
A549 [17]
  IC50: 66.3 µM

## CC(=O)O[C@H]1C(=O)[C@@]2(C)[C@H]([C@H](OC(=O)c3ccccc3)[C@]3(O)C[C@H](OC(=O)[C@H](O)[C@@H](NC(=O)c4ccccc4)c4ccccc4)C(C)=C1C3(C)C)[C@]1(OC(C)=O)CO[C@@H]1C[C@@H]2O [PACLITAXEL]
MDA-MB-231
  IC50: 0.1 µM
HeLa
  IC50: 0.006 µM

## COc1ccccc1N1C(=O)C2(C3=C(Nc4ccccc42)C(=O)CC(C)(C)C3)C2=C1CC(C)(C)CC2=O (stereo unspecified)
Staphylococcus aureus [18]
  MIC: 75 µg/mL (≈ 151 µM)
Bacillus subtilis [19]
  MIC: 75 µg/mL (≈ 151 µM)
Escherichia coli [20]
  MIC: 175 µg/mL (≈ 352 µM)
Pseudomonas aeruginosa [21]
  MIC: 100 µg/mL (≈ 201 µM)

## CC1(C)CC(=O)C2=C(C1)N(c1ccccc1F)C(=O)C21C2=C(Nc3ccccc31)C(=O)CC(C)(C)C2 (stereo unspecified)
Staphylococcus aureus [18]
  MIC: inactive
Bacillus subtilis [19]
  MIC: 75 µg/mL (≈ 155 µM)
Escherichia coli [20]
  MIC: 37.5 µg/mL (≈ 77.4 µM)
Pseudomonas aeruginosa [21]
  MIC: 50 µg/mL (≈ 103 µM)

## N#CC1=C(N)OC2=C(C(=O)c3ccccc32)C12C(=O)Nc1ccc(Cl)cc12 (stereo unspecified)
MDA-MB-435
  IC50: 2100 nM

## CCOC(=O)N1C/C(=C\c2ccc(F)cc2F)C(=O)[C@@]2(C1)[C@H](c1ccc(F)cc1F)[C@H]1CCCN1[C@]21C(=O)Nc2ccccc21
Streptococcus pneumoniae
  MIC: 0.015 µg/mL (≈ 0.0242 µM)
Bacillus subtilis [5]
  MIC: 0.015 µg/mL (≈ 0.0242 µM)
Pseudomonas aeruginosa [6]
  MIC: inactive
Escherichia coli [7]
  MIC: 1.95 µg/mL (≈ 3.15 µM)
Aspergillus fumigatus
  MIC: 7.81 µg/mL (≈ 12.6 µM)
[8]
  MIC: 1.95 µg/mL (≈ 3.15 µM)
Geotrichum candidum
  MIC: 0.03 µg/mL (≈ 0.0484 µM)
Candida albicans
  MIC: inactive

## N#CC1=C(N)Oc2c(ccc3[nH]c4ccccc4c23)C12C(=O)N(Cc1cn(Cc3ccc([N+](=O)[O-])cc3)nn1)c1ccccc12 (stereo unspecified)
MDA-MB-231
  IC50: 51.2 µM
HeLa
  IC50: 6.3 µM

## CCOC(=O)N1C/C(=C\c2ccc(Cl)cc2)C(=O)[C@@]2(C1)[C@H](c1ccc(Cl)cc1)CN(C)[C@]21C(=O)Nc2ccccc21
Streptococcus pneumoniae
  MIC: 0.12 µg/mL (≈ 0.203 µM)
Bacillus subtilis [5]
  MIC: 0.015 µg/mL (≈ 0.0254 µM)
Pseudomonas aeruginosa [6]
  MIC: 15.6 µg/mL (≈ 26.5 µM)
Escherichia coli [7]
  MIC: 1.95 µg/mL (≈ 3.3 µM)
Aspergillus fumigatus
  MIC: 0.015 µg/mL (≈ 0.0254 µM)
[8]
  MIC: 1.95 µg/mL (≈ 3.3 µM)
Geotrichum candidum
  MIC: 0.015 µg/mL (≈ 0.0254 µM)
Candida albicans
  MIC: 0.06 µg/mL (≈ 0.102 µM)

## O=C(c1ccc(F)cc1)C1C(c2ccc(Cl)cc2)CNC12C(=O)Nc1ccccc12 (stereo unspecified)
[4]
  Activity: 88.7%
